Measurements reported in the supplement of paper PMC10307832.

Experiments:
Experiment in all cases: relative viability (nuclei count vs DMSO), 5 days (fraction); higher = more cells survive
[1] = compound: Cc1ccc(F)c(NC(=O)Nc2ccc(-c3cccc4[nH]nc(N)c34)cc2)c1 [Linifanib]
Summary of the method: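 Nuclei counted with MetaXpress define viability as the ratio of treated to vehicle wells, given as a median across plates. The lung cancer cell lines were in 1536-well plates, pinned with five √10-spaced library-drug doses and imaged at 4× after 5 days and Hoechst staining. Plates passed with control CV below 25% and at least one doubling.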

[2] = compound: Cc1ccc(F)c(NC(=O)Nc2ccc(-c3cccc4[nH]nc(N)c34)cc2)c1 [Linifanib] + C[C@]1(O)C[C@@H](c2nc(-c3ccc4ccc(-c5ccccc5)nc4c3)c3c(N)nccn32)C1 [Linsitinib] (partner 1 µM)
Summary of the method: (§1)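 Lung cancer cell lines in 1536-well plates got either a single drug or a fixed anchor-drug dose together with five library-drug doses (not always all listed) in √10 steps, by pin tool, on the day after seeding. Nuclei were counted after 5 days, and relative viability is the treated-to-vehicle ratio of nuclei counts. Values are medians of duplicate plates.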

[3] = compound: Cc1ccc(F)c(NC(=O)Nc2ccc(-c3cccc4[nH]nc(N)c34)cc2)c1 [Linifanib] + Nc1ncn([C@H]2C[C@H](O)[C@@H](CO)O2)c(=O)n1 [Decitabine] (partner 2 µM)
Summary of the method: as §1

HCC-827
relative viability ([1]; 0.03162 µM): 1 | relative viability ([1]; 0.1 µM): 1.06 | relative viability ([1]; 0.3162 µM): 1.02 | relative viability ([2]; first compound 0.03162 µM): 0.992 | relative viability ([2]; first compound 0.1 µM): 0.999 | relative viability ([2]; first compound 0.3162 µM): 0.996 | relative viability ([3]; first compound 0.03162 µM): 0.32 | relative viability ([3]; first compound 0.1 µM): 0.31 | relative viability ([3]; first compound 0.3162 µM): 0.331

HCC-366
relative viability ([1]; 0.03162 µM): 1.06 | relative viability ([1]; 0.1 µM): 1.05 | relative viability ([1]; 0.3162 µM): 0.949 | relative viability ([2]; first compound 0.03162 µM): 0.676 | relative viability ([2]; first compound 0.1 µM): 0.735 | relative viability ([2]; first compound 0.3162 µM): 0.5 | relative viability ([3]; first compound 0.03162 µM): 0.417 | relative viability ([3]; first compound 0.1 µM): 0.328 | relative viability ([3]; first compound 0.3162 µM): 0.336

UMC-11
relative viability ([1]; 0.03162 µM): 0.979 | relative viability ([1]; 0.1 µM): 1.02 | relative viability ([1]; 0.3162 µM): 0.878 | relative viability ([2]; first compound 0.03162 µM): 0.921 | relative viability ([2]; first compound 0.1 µM): 1.06 | relative viability ([2]; first compound 0.3162 µM): 0.911 | relative viability ([3]; first compound 0.03162 µM): 0.585 | relative viability ([3]; first compound 0.1 µM): 0.562 | relative viability ([3]; first compound 0.3162 µM): 0.581

NCI-H727
relative viability ([1]; 0.03162 µM): 0.899 | relative viability ([1]; 0.1 µM): 1.02 | relative viability ([1]; 0.3162 µM): 0.855 | relative viability ([2]; first compound 0.03162 µM): 0.224 | relative viability ([2]; first compound 0.1 µM): 0.291 | relative viability ([2]; first compound 0.3162 µM): 0.222 | relative viability ([3]; first compound 0.03162 µM): 0.883 | relative viability ([3]; first compound 0.1 µM): 0.885 | relative viability ([3]; first compound 0.3162 µM): 0.88

NCI-H2009
relative viability ([1]; 0.03162 µM): 1.08 | relative viability ([1]; 0.1 µM): 0.972 | relative viability ([1]; 0.3162 µM): 0.987 | relative viability ([2]; first compound 0.03162 µM): 1.15 | relative viability ([2]; first compound 0.1 µM): 1.19 | relative viability ([2]; first compound 0.3162 µM): 1.13 | relative viability ([3]; first compound 0.03162 µM): 0.371 | relative viability ([3]; first compound 0.1 µM): 0.41 | relative viability ([3]; first compound 0.3162 µM): 0.378

NCI-H2405
relative viability ([1]; 0.03162 µM): 1.08 | relative viability ([1]; 0.1 µM): 1.04 | relative viability ([1]; 0.3162 µM): 0.966 | relative viability ([2]; first compound 0.03162 µM): 0.886 | relative viability ([2]; first compound 0.1 µM): 0.98 | relative viability ([2]; first compound 0.3162 µM): 0.852 | relative viability ([3]; first compound 0.03162 µM): 0.766 | relative viability ([3]; first compound 0.1 µM): 0.747 | relative viability ([3]; first compound 0.3162 µM): 0.756

NCI-H23
relative viability ([1]; 0.03162 µM): 0.98 | relative viability ([1]; 0.1 µM): 1.06 | relative viability ([1]; 0.3162 µM): 0.811 | relative viability ([2]; first compound 0.03162 µM): 0.536 | relative viability ([2]; first compound 0.1 µM): 0.798 | relative viability ([2]; first compound 0.3162 µM): 0.475 | relative viability ([3]; first compound 0.03162 µM): 0.355 | relative viability ([3]; first compound 0.1 µM): 0.308 | relative viability ([3]; first compound 0.3162 µM): 0.343

NCI-H2347
relative viability ([1]; 0.03162 µM): 1.08 | relative viability ([1]; 0.1 µM): 1.22 | relative viability ([1]; 0.3162 µM): 1 | relative viability ([2]; first compound 0.03162 µM): 0.994 | relative viability ([2]; first compound 0.1 µM): 0.96 | relative viability ([2]; first compound 0.3162 µM): 0.954 | relative viability ([3]; first compound 0.03162 µM): 0.622 | relative viability ([3]; first compound 0.1 µM): 0.616 | relative viability ([3]; first compound 0.3162 µM): 0.598

NCI-H2170
relative viability ([1]; 0.03162 µM): 0.989 | relative viability ([1]; 0.1 µM): 1.01 | relative viability ([1]; 0.3162 µM): 0.928 | relative viability ([3]; first compound 0.03162 µM): 0.472 | relative viability ([3]; first compound 0.1 µM): 0.448 | relative viability ([3]; first compound 0.3162 µM): 0.453

PC-3 [JPC-3]
relative viability ([1]; 0.03162 µM): 1.06 | relative viability ([1]; 0.1 µM): 1.03 | relative viability ([1]; 0.3162 µM): 0.939 | relative viability ([2]; first compound 0.03162 µM): 0.971 | relative viability ([2]; first compound 0.1 µM): 0.903 | relative viability ([2]; first compound 0.3162 µM): 1 | relative viability ([3]; first compound 0.03162 µM): 0.766 | relative viability ([3]; first compound 0.1 µM): 0.792 | relative viability ([3]; first compound 0.3162 µM): 0.847

NCI-H1355
relative viability ([1]; 0.03162 µM): 1.03 | relative viability ([1]; 0.1 µM): 1.07 | relative viability ([1]; 0.3162 µM): 0.99 | relative viability ([2]; first compound 0.03162 µM): 0.843 | relative viability ([2]; first compound 0.1 µM): 0.876 | relative viability ([2]; first compound 0.3162 µM): 0.852 | relative viability ([3]; first compound 0.03162 µM): 0.352 | relative viability ([3]; first compound 0.1 µM): 0.387 | relative viability ([3]; first compound 0.3162 µM): 0.338

NCI-H3122
relative viability ([1]; 0.03162 µM): 1.02 | relative viability ([1]; 0.1 µM): 1.02 | relative viability ([1]; 0.3162 µM): 0.975 | relative viability ([2]; first compound 0.03162 µM): 0.997 | relative viability ([2]; first compound 0.1 µM): 0.986 | relative viability ([2]; first compound 0.3162 µM): 1.04 | relative viability ([3]; first compound 0.03162 µM): 0.442 | relative viability ([3]; first compound 0.1 µM): 0.418 | relative viability ([3]; first compound 0.3162 µM): 0.487

COR-L 105
relative viability ([1]; 0.03162 µM): 0.975 | relative viability ([1]; 0.1 µM): 0.97 | relative viability ([1]; 0.3162 µM): 0.904 | relative viability ([2]; first compound 0.03162 µM): 0.87 | relative viability ([2]; first compound 0.1 µM): 0.978 | relative viability ([2]; first compound 0.3162 µM): 0.715 | relative viability ([3]; first compound 0.03162 µM): 0.602 | relative viability ([3]; first compound 0.1 µM): 0.73 | relative viability ([3]; first compound 0.3162 µM): 0.585

NCI-H2085
relative viability ([1]; 0.03162 µM): 1.02 | relative viability ([1]; 0.1 µM): 1.06 | relative viability ([1]; 0.3162 µM): 1.01 | relative viability ([2]; first compound 0.03162 µM): 0.895 | relative viability ([2]; first compound 0.1 µM): 0.913 | relative viability ([2]; first compound 0.3162 µM): 0.835 | relative viability ([3]; first compound 0.03162 µM): 0.535 | relative viability ([3]; first compound 0.1 µM): 0.632 | relative viability ([3]; first compound 0.3162 µM): 0.573

ChaGo-K-1
relative viability ([1]; 0.03162 µM): 1.07 | relative viability ([1]; 0.1 µM): 1.01 | relative viability ([1]; 0.3162 µM): 0.983 | relative viability ([3]; first compound 0.03162 µM): 0.497 | relative viability ([3]; first compound 0.1 µM): 0.531 | relative viability ([3]; first compound 0.3162 µM): 0.509

NCI-H460
relative viability ([1]; 0.03162 µM): 0.984 | relative viability ([1]; 0.1 µM): 1.03 | relative viability ([1]; 0.3162 µM): 0.92 | relative viability ([2]; first compound 0.03162 µM): 0.714 | relative viability ([2]; first compound 0.1 µM): 1.05 | relative viability ([2]; first compound 0.3162 µM): 0.773 | relative viability ([3]; first compound 0.03162 µM): 0.492 | relative viability ([3]; first compound 0.1 µM): 0.583 | relative viability ([3]; first compound 0.3162 µM): 0.475

HCC-78
relative viability ([1]; 0.03162 µM): 0.99 | relative viability ([1]; 0.1 µM): 1.17 | relative viability ([1]; 0.3162 µM): 0.885 | relative viability ([2]; first compound 0.03162 µM): 0.528 | relative viability ([2]; first compound 0.1 µM): 0.526 | relative viability ([2]; first compound 0.3162 µM): 0.497 | relative viability ([3]; first compound 0.03162 µM): 0.784 | relative viability ([3]; first compound 0.1 µM): 0.752 | relative viability ([3]; first compound 0.3162 µM): 0.717

NCI-H650
relative viability ([1]; 0.03162 µM): 1.1 | relative viability ([1]; 0.1 µM): 1.11 | relative viability ([1]; 0.3162 µM): 0.972 | relative viability ([2]; first compound 0.03162 µM): 1 | relative viability ([2]; first compound 0.1 µM): 1.07 | relative viability ([2]; first compound 0.3162 µM): 0.851 | relative viability ([3]; first compound 0.03162 µM): 0.371 | relative viability ([3]; first compound 0.1 µM): 0.355 | relative viability ([3]; first compound 0.3162 µM): 0.312
